Earlier results, collected in patent US9586989B1, “Non-toxic skin cancer therapy with copper peptides” (Skin Biology, Inc., priority 2011, dated 2017).

How the values were obtained:
[1] = system: 54 human genes overexpressed in patients with aggressive metastatic form of colon cancer; conditions: for concentration that produced downregulation of "metastatic" genes: Connectivity Map perturbagen search
Ehrlich ascites cells = conditions: injection for 12 days; mixture of 8 micrograms ascorbic acid and 8 micrograms copper 2+ complex

Compound | concentration that produced downregulation of "metastatic" genes [1] | share of genes in which RNA production was suppressed ([1]; of 54 human genes overexpressed in aggressive metastatic colon cancer, GHK without copper 2+) | share of mice that lived for a long time and resisted re-establishment of tumor cells (Ehrlich ascites cells) | share of mice with prolonged life span (Ehrlich ascites cells)
O=C1C=C2C=C[C@@H]3C[C@@]2(O1)[C@H]1CCCCN31 [securinine] | 18 µM | – | – | –
Gly-L-His-L-Lys [GHK] | 1 µM | 70% | – | –
copper 2+ complexed to Glycyl-Glycyl-L-Histidine | – | – | 40% | 60%
